In US20220251036A1, “DIFLUOROHALOALLYLAMINE SULFONE DERIVATIVE INHIBITORS OF LYSYL OXIDASES, METHODS OF PREPARATION, AND USES THEREOF” (PHARMAXIS LTD., priority 2019, published 2022):

How the values were obtained:
Assay type in all cases: biochemical
[1] = target: T1, Human recombinant SSAO/VAP-1 (Homo sapiens, UniProt Q16853); test: SSAO/VAP-1 inhibition; conditions: 30 min incubation at 37° C, benzylamine 600 μM
T1 construct: residues 34-763 of human SSAO/VAP-1; TEV cleavage site (N); made in house
T1 sequence (Q16853 34-763): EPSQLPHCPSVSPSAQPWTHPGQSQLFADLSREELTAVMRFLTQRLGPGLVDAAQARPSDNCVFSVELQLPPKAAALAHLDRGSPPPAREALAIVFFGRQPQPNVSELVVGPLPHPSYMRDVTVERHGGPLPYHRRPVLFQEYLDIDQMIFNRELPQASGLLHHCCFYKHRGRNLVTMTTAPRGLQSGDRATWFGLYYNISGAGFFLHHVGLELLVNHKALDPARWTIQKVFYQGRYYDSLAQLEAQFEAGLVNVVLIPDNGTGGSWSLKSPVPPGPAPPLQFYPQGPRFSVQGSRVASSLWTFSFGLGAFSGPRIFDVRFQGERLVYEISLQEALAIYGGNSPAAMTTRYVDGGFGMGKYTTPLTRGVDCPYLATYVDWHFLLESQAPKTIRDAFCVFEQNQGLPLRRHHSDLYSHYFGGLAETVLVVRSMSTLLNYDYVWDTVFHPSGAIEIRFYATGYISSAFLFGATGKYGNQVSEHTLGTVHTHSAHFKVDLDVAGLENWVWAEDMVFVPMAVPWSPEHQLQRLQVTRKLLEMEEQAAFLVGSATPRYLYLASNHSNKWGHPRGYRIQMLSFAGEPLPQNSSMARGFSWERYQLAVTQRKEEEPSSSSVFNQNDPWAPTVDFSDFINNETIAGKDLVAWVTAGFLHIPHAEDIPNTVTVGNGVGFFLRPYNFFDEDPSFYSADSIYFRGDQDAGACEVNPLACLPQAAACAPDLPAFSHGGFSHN
Procedure: Human recombinant SSAO/VAP-1 amine oxidase activity was determined using the coupled colorimetric method as described for monoamine oxidase, copper-containing amine oxidases and related enzymes (Holt A. and Palcic M., A peroxidase-coupled continuous absorbance plate-reader assay for flavin monoamine oxidases, copper-containing amine oxidases and related enzymes. Nat Protoc 2006; 1: 2498-2505). Briefly, a cloned cDNA template corresponding to residues 34-763 of human SSAO/VAP-1, and incorporating a mouse Ig kappa (κ) signal sequence, N-terminal flag epitope tag and tobacco etch virus (TEV) cleavage site, was assembled in a mammalian expression vector (pLO-CMV) by Geneart AG. This vector containing human SSAO/VAP-1 residues was transfected into CHO-K1 glycosylation mutant cell line, Lee 8. A clone stably expressing human SSAO/VAP-1 was isolated and cultured in large scale. Active human SSAO/VAP-1 was purified and recovered using immunoaffinity chromatography. This was used as the source for SSAO/VAP-1 activity. A high-throughput fluorescent assay was developed using either 96 or 384 well format. Briefly, in a standard 96 well plate assay 50 μL of purified human SSAO/VAP-1 (0.25 μg/mL) in 0.1 M sodium phophate buffer (pH 7.4) was added into each well. Test compounds were dissolved in DMSO and tested in a Concentration Response Curve (CRC) with 4-11 data points, typically in the micromolar or nanomolar range after incubation with human SSAO/VAP-1 for 30 min at 37° C. After 30 min incubation, 50 μL of the reaction mixture containing 600 μM benzylamine (Sigma Aldrich), 120 μM Amplex Red (Sigma Aldrich) and 1.5 U/mL horseradish peroxidase (Sigma Aldrich) prepared in 0.1 M sodium phosphate buffer (pH 7.4) were added to the corresponding well. The fluorescence unit (RFU) was read every 2.5 min for 30 min at 37° C. excitation 565 nm and emission 590 (Optima; BMG labtech). The slope of the kinetics for each well was calculated using MARS data analysis software (BMG labtech) and this value was used to deduce the IC50 value (Dotmatics).

[2] = target: T2, recombinant human MAO-B (Homo sapiens, UniProt P27338); test: MAO-B inhibition; conditions: benzylamine 100 μM
T2 construct: purchased Sigma Aldrich
T2 sequence (P27338 1-520): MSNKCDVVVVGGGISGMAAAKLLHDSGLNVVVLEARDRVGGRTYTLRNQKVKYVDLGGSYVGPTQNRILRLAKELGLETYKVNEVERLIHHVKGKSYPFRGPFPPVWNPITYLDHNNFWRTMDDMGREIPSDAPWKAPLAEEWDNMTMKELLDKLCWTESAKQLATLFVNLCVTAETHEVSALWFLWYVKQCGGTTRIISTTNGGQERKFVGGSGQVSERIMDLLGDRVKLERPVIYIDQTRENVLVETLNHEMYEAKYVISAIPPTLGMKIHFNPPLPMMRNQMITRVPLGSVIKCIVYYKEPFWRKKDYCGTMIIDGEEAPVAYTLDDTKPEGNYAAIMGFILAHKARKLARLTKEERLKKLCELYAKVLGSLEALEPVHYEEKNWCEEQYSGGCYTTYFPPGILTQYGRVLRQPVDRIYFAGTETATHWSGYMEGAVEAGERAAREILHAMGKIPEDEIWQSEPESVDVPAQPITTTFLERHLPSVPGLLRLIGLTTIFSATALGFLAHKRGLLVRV
Procedure: The specificity of the compounds of this invention was tested by determining their ability to inhibit MAO-B activity in vitro using recombinant human MAO-B (0.02 mg/mL; Sigma Aldrich). The assay was performed in a similar way as for human SSAO/VAP-1 (Example 8) except, the substrate benzylamine was used at 100 μM.

[3] = target: T3, recombinant human MAO-A (Homo sapiens, UniProt P21397); test: MAO-A inhibition; conditions: 2 hours incubation, tyramine 100 μM
T3 construct: purchased Sigma Aldrich
T3 sequence (P21397 1-527): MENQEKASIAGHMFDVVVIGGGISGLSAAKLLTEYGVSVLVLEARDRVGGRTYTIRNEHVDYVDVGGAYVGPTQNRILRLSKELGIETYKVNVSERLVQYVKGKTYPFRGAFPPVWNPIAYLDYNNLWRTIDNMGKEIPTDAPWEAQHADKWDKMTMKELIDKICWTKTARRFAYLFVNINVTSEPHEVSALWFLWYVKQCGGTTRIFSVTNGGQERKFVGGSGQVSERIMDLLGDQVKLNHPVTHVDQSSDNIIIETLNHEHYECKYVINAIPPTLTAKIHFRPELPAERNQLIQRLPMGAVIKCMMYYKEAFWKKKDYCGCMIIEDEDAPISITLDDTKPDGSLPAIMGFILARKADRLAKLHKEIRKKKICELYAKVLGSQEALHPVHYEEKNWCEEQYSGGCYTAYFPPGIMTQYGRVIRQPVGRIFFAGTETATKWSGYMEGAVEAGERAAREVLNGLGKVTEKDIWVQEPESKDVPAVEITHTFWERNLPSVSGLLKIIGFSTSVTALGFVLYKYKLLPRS
Procedure: The specificity of the compounds of this invention was tested by determining their ability to inhibit MAO-A activity in vitro, using recombinant human MAO-A (0.003 mg/mL; Sigma Aldrich). The assay was performed in a similar way as for human SSAO/VAP-1 (Example 8) except, the incubation with the test compounds was extended to 2 hours, and the substrate tyramine was used at 100 μM in place of benzylamine.

Structure (SMILES) | IC50 [1] [µM] | IC50 [2] [µM] | IC50 [3] [µM]
N#CCCN [BAPN, β-aminopropionitrile, reference compound] | > 30 | > 30 | > 30
Cc1ccccc1S(=O)(=O)C(F)(F)/C(F)=C/CN [Compound 5, (Z)-3,4,4-trifluoro-4-(o-tolylsulfonyl)but-2-en-1-amine] | > 30 | > 30 | 20.2
Cc1ccc(S(=O)(=O)C(F)(F)/C(F)=C/CN)cc1 [Compound 6, (Z)-3,4,4-trifluoro-4-tosylbut-2-en-1-amine] | > 30 | > 30 | > 30
NC/C=C(\F)C(F)(F)S(=O)(=O)Cc1ccccc1 [Compound 8, (Z)-4-(benzylsulfony1)-3,4,4-trifluorobut-2-en-1-amine] | > 30 | > 30 | > 30

Stronger by IC50 [1], values ahead:

IC50 [1] [µM] | IC50 [2] [µM] | IC50 [3] [µM] | Structure (SMILES)
26.6 | – | – | NC/C=C(\F)C(F)(F)S(=O)(=O)c1cccs1 [Compound 14, (Z)-3,4,4-trifluoro-4-(thiophen-2-ylsulfonyl)but-2-en-1-amine]
18 | ≥ 30 | 26.7 | CNc1ccccc1S(=O)(=O)C(F)(F)/C(F)=C/CN [Compound 4, (Z)-2-((4-amino-1,1,2-trifluorobut-2-en-yl)sulfony1)-N-methylaniline]
14.7 | > 30 | 4.7 | CS(=O)(=O)c1ccc(COc2ccccc2S(=O)(=O)C(F)(F)/C(F)=C/CN)cc1 [Compound 10, (Z)-3,4,4-trifluoro-4-((2-((4-(methylsulfonyl)benzyl)oxy)phenyl)sulfonyl) but-2-en-1-amine]
